From patent US20250228239A1, “MOLECULES HAVING PESTICIDAL UTILITY, AND INTERMEDIATES, COMPOSITIONS, AND PROCESSES, RELATED THERETO” (priority 2024, published 2025)

What was measured:
[1] = tested on: Beet Armyworm (Spodoptera exigua, LAPHEG); assay: Bioassays on Beet Armyworm (BAW), 128-well diet tray assay; format: in vivo; settings: Spodoptera exigua; Beet Armyworm; rating class; read-out: BAW
Outline: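 Mortality of second-instar larvae (1–5/well) on artificial diet treated with 50 μg/cm^2 compound, read after 5–7 days at 25° C.; values are means of eight wells.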

[2] = tested on: Cabbage Looper (Trichoplusia ni, TRIPNI); assay: Bioassays on Cabbage Looper (CL), 128-well diet tray assay; format: in vivo; settings: Trichoplusia ni; Cabbage Looper; rating class; read-out: CL
Outline: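 Second-instar larvae (1–5 per well) placed on artificial diet surface-treated with 50 μg/cm^2 test molecule applied in 90:10 acetone-water and dried. Held at 25° C., 14:10 light-dark, for five to seven days. Percent mortality scored per well and averaged over eight wells.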

| Compound | pest or weed control at 50 µg/cm2 [1] [%] | pest or weed control at 50 µg/cm2 [2] [%] |
| --- | --- | --- |
| Cc1cc(NC(=O)[C@H]2[C@H](c3ccc(F)c(C(F)(F)F)c3)C2(Cl)Cl)cc(C(=O)Nc2c(F)ccc(NC(=O)C(F)F)c2F)c1Cl [F1468, 2-Chloro-5-((1R,3R)-2,2-dichloro-3-(4-fluoro-3-(trifluoromethyl)phenyl)cyclopropane-1-carboxamido)-N-(3-(2,2-difluoroacetamido)-2,6-difluorophenyl)-3-methylbenzamide] | 50 to 100 | 50 to 100 |
| Cc1cc(NC(=O)[C@H]2[C@H](c3ccc(F)c(C(F)(F)F)c3)C2(Cl)Cl)cc(C(=O)Nc2c(F)ccc(NC(=O)C(F)(F)F)c2F)c1Cl [F1469, 2-Chloro-5-((1R,3R)-2,2-dichloro-3-(4-fluoro-3-(trifluoromethyl)phenyl)cyclopropane-1-carboxamido)-N-(2,6-difluoro-3-(2,2,2-trifluoroacetamido)phenyl)-3-methylbenzamide] | 50 to 100 | 50 to 100 |
| Cc1cc(NC(=O)[C@H]2[C@H](c3ccc(Cl)c(Cl)c3)C2(Cl)Cl)cc(C(=O)Nc2cc(N)c(F)cc2F)c1Cl [F1470, N-(5-Amino-2,4-difluorophenyl)-2-chloro-5-((1R,3R)-2,2-dichloro-3-(3,4-dichlorophenyl)cyclopropane-1-carboxamido)-3-methylbenzamide] | 50 to 100 | 50 to 100 |
| O=C(Nc1ccc(F)c(NC(=O)C(F)(F)c2ccccc2)c1F)c1cc(NC(=O)[C@H]2[C@H](c3ccc(Cl)c(Cl)c3)C2(Cl)Cl)ccc1Cl [F1471, 2-Chloro-5-((1R,3R)-2,2-dichloro-3-(3,4-dichlorophenyl)cyclopropane-1-carboxamido)-N-(3-(2,2-difluoro-2-phenylacetamido)-2,4-difluorophenyl)benzamide] | 50 to 100 | 50 to 100 |
| CCC(=O)Nc1c(F)ccc(NC(=O)c2cc(NC(=O)[C@H]3[C@H](c4ccc(Cl)c(Cl)c4)C3(Cl)Cl)ccc2Cl)c1F [F1472, 2-Chloro-5-((1R,3R)-2,2-dichloro-3-(3,4-dichlorophenyl)cyclopropane-1-carboxamido)-N-(2,4-difluoro-3-propionamidophenyl)benzamide] | 50 to 100 | 50 to 100 |
| CCOC(=O)Nc1c(F)ccc(NC(=O)c2cc(NC(=O)[C@H]3[C@H](c4ccc(Cl)c(Cl)c4)C3(Cl)Cl)ccc2Cl)c1F [F1476, Ethyl (3-(2-chloro-5-((1R,3R)-2,2-dichloro-3-(3,4-dichlorophenyl)cyclopropane-1-carboxamido)benzamido)-2,6-difluorophenyl)carbamate] | 50 to 100 | 50 to 100 |
| Cc1cc(NC(=O)[C@H]2[C@H](c3cc(Cl)c(Cl)c(Cl)c3)C2(Cl)Cl)cc(C(=O)Nc2cc(N)c(F)cc2F)c1Cl [F1477, N-(5-Amino-2,4-difluorophenyl)-2-chloro-5-((1R,3R)-2,2-dichloro-3-(3,4,5-trichlorophenyl)cyclopropane-1-carboxamido)-3-methylbenzamide] | 50 to 100 | 50 to 100 |
| Cc1cc(NC(=O)[C@H]2[C@H](c3ccc(F)c(C(F)(F)F)c3)C2(Cl)Cl)cc(C(=O)Nc2cc(N)c(F)cc2F)c1Cl [F1478, N-(5-Amino-2,4-difluorophenyl)-2-chloro-5-((1R,3R)-2,2-dichloro-3-(4-fluoro-3-(trifluoromethyl)phenyl)cyclopropane-1-carboxamido)-3-methylbenzamide] | 50 to 100 | 50 to 100 |
| Cc1cc(NC(=O)[C@H]2[C@H](c3ccc(Cl)c(Cl)c3)C2(Cl)Cl)cc(C(=O)Nc2ccc(F)c(NC(=O)C(F)F)c2F)c1Cl [F1484, 2-Chloro-5-((1R,3R)-2,2-dichloro-3-(3,4-dichlorophenyl)cyclopropane-1-carboxamido)-N-(3-(2,2-difluoroacetamido)-2,4-difluorophenyl)-3-methylbenzamide] | 50 to 100 | 50 to 100 |
| Cc1cc(NC(=O)[C@H]2[C@H](c3ccc(Cl)c(Cl)c3)C2(Cl)Cl)cc(C(=O)Nc2ccc(F)c(NC(=O)C(F)(F)F)c2F)c1Cl [F1485, 2-Chloro-5-((1R,3R)-2,2-dichloro-3-(3,4-dichlorophenyl)cyclopropane-1-carboxamido)-N-(2,4-difluoro-3-(2,2,2-trifluoroacetamido)phenyl)-3-methylbenzamide] | 50 to 100 | 50 to 100 |
| Cc1cc(NC(=O)[C@H]2[C@H](c3cc(Cl)c(Cl)c(Cl)c3)C2(Cl)Cl)cc(C(=O)Nc2ccc(F)c(NC(=O)C(F)F)c2F)c1Cl [F1486, 2-Chloro-5-((1R,3R)-2,2-dichloro-3-(3,4,5-trichlorophenyl)cyclopropane-1-carboxamido)-N-(3-(2,2-difluoroacetamido)-2,4-difluorophenyl)-3-methylbenzamide] | 50 to 100 | 50 to 100 |
| Cc1cc(NC(=O)[C@H]2[C@H](c3cc(Cl)c(Cl)c(Cl)c3)C2(Cl)Cl)cc(C(=O)Nc2ccc(F)c(NC(=O)C(F)(F)F)c2F)c1Cl [F1487, 2-Chloro-5-((1R,3R)-2,2-dichloro-3-(3,4,5-trichlorophenyl)cyclopropane-1-carboxamido)-N-(2,4-difluoro-3-(2,2,2-trifluoroacetamido)phenyl)-3-methylbenzamide] | 50 to 100 | 50 to 100 |
| Nc1cc(NC(=O)c2cc(NC(=O)[C@H]3[C@H](c4ccc(Cl)c(Cl)c4)C3(Cl)Cl)ccc2F)c(F)cc1F [F1490, N-(5-Amino-2,4-difluorophenyl)-5-((1R,3R)-2,2-dichloro-3-(3,4-dichlorophenyl)cyclopropane-1-carboxamido)-2-fluorobenzamide] | 50 to 100 | 50 to 100 |
| O=C(Nc1ccc(F)c(NC(=O)C(F)F)c1F)c1cc(NC(=O)[C@H]2[C@H](c3ccc(Cl)c(Cl)c3)C2(Cl)Cl)ccc1F [F1491, 5-((1R,3R)-2,2-Dichloro-3-(3,4-dichlorophenyl)cyclopropane-1-carboxamido)-N-(3-(2,2-difluoroacetamido)-2,4-difluorophenyl)-2-fluorobenzamide] | 50 to 100 | 50 to 100 |
| CC(=O)Nc1c(F)ccc(NC(=O)c2cc(NC(=O)[C@H]3[C@H](c4ccc(Cl)c(Cl)c4)C3(Cl)Cl)ccc2F)c1F [F1493, N-(3-Acetamido-2,4-difluorophenyl)-5-((1R,3R)-2,2-dichloro-3-(3,4-dichlorophenyl)cyclopropane-1-carboxamido)-2-fluorobenzamide] | 50 to 100 | 50 to 100 |
| Cc1cc(NC(=O)[C@H]2[C@H](c3ccc(F)c(C(F)(F)F)c3)C2(Cl)Cl)cc(C(=O)Nc2ccc(F)c(NC(=O)C(F)F)c2F)c1Cl [F1494, 2-Chloro-5-((1R,3R)-2,2-dichloro-3-(4-fluoro-3-(trifluoromethyl)phenyl)cyclopropane-1-carboxamido)-N-(3-(2,2-difluoroacetamido)-2,4-difluorophenyl)-3-methylbenzamide] | 50 to 100 | 50 to 100 |
| Cc1cc(NC(=O)[C@H]2[C@H](c3ccc(F)c(C(F)(F)F)c3)C2(Cl)Cl)cc(C(=O)Nc2ccc(F)c(NC(=O)C(F)(F)F)c2F)c1Cl [F1495, 2-Chloro-5-((1R,3R)-2,2-dichloro-3-(4-fluoro-3-(trifluoromethyl)phenyl)cyclopropane-1-carboxamido)-N-(2,4-difluoro-3-(2,2,2-trifluoroacetamido)phenyl)-3-methylbenzamide] | 50 to 100 | 50 to 100 |
| Cc1cc(NC(=O)[C@H]2[C@H](c3ccc(Cl)c(Cl)c3)C2(Cl)Cl)cc(C(=O)Nc2cc(NC(=O)C(F)F)c(F)cc2F)c1Cl [F1496, 2-Chloro-5-((1R,3R)-2,2-dichloro-3-(3,4-dichlorophenyl)cyclopropane-1-carboxamido)-N-(5-(2,2-difluoroacetamido)-2,4-difluorophenyl)-3-methylbenzamide] | 50 to 100 | 50 to 100 |
| Cc1cc(NC(=O)[C@H]2[C@H](c3ccc(Cl)c(Cl)c3)C2(Cl)Cl)cc(C(=O)Nc2cc(NC(=O)C(F)(F)F)c(F)cc2F)c1Cl [F1497, 2-Chloro-5-((1R,3R)-2,2-dichloro-3-(3,4-dichlorophenyl)cyclopropane-1-carboxamido)-N-(2,4-difluoro-5-(2,2,2-trifluoroacetamido)phenyl)-3-methylbenzamide] | 50 to 100 | 50 to 100 |
| Cc1cc(NC(=O)[C@H]2[C@H](c3cc(Cl)c(Cl)c(Cl)c3)C2(Cl)Cl)cc(C(=O)Nc2cc(NC(=O)C(F)F)c(F)cc2F)c1Cl [F1498, 2-Chloro-5-((1R,3R)-2,2-dichloro-3-(3,4,5-trichlorophenyl)cyclopropane-1-carboxamido)-N-(5-(2,2-difluoroacetamido)-2,4-difluorophenyl)-3-methylbenzamide] | 50 to 100 | 50 to 100 |
| Cc1cc(NC(=O)[C@H]2[C@H](c3cc(Cl)c(Cl)c(Cl)c3)C2(Cl)Cl)cc(C(=O)Nc2cc(NC(=O)C(F)(F)F)c(F)cc2F)c1Cl [F1499, 2-Chloro-5-((1R,3R)-2,2-dichloro-3-(3,4,5-trichlorophenyl)cyclopropane-1-carboxamido)-N-(2,4-difluoro-5-(2,2,2-trifluoroacetamido)phenyl)-3-methylbenzamide] | 50 to 100 | 50 to 100 |
| Cc1cc(NC(=O)[C@H]2[C@H](c3ccc(F)c(C(F)(F)F)c3)C2(Cl)Cl)cc(C(=O)Nc2cc(NC(=O)C(F)F)c(F)cc2F)c1Cl [F1500, 2-Chloro-5-((1R,3R)-2,2-dichloro-3-(4-fluoro-3-(trifluoromethyl)phenyl)cyclopropane-1-carboxamido)-N-(5-(2,2-difluoroacetamido)-2,4-difluorophenyl)-3-methylbenzamide] | 50 to 100 | 50 to 100 |
